This note sets out measurements from patent US20010018090A1, “Calorie reducing agent” (priority 1999, published 2001).

≈ marks a conversion by molar mass, not a printed value.

The target of this assay is T1, α-glucosidase (sucrase) existing in small intestine of rat (Rattus norvegicus, UniProt P23739).
T1 construct: the supernatant liquid thereof was used as an enzyme solution (sucrase); from tissue; host or cells: rat small intestinal mucous membrane (brush border membrane)
The experiment in a line: Inhibition of rat small intestinal α-glucosidase (sucrase), IC50. Type of assay: biochemical. The following applies: partially purified rat small intestinal sucrase, 5 mM sucrose, 37° C. for 60 minutes. As for the experimental part: As to the α-glucosidase, a sucrase solution which was partially purified from small intestinal mucous membrane (brush edge membrane) of rat was used. Namely, the mucous membrane of small intestine was exfoliated using a slide glass, homogenized at 4° C. for 5 minutes with a phosphate buffer and subjected to an ultrasonic treatment for 5 minutes. The resulting solution of smashed mucous membrane was centrifuged and the supernatant liquid thereof was used as an enzyme solution (sucrase). A 5 mM sucrose solution was used as a substrate, an enzyme solution and a predetermined amount of a 1-deoxynojirimycin solution or a mulberry extract were added and the reaction was carried out at 37° C. for 60 minutes and then stopped by a treatment at 100° C. for 5 minutes. Amount of glucose in the reaction solution was measured by a biochemical automatic analyzer.

T1 sequence (P23739 whole entry): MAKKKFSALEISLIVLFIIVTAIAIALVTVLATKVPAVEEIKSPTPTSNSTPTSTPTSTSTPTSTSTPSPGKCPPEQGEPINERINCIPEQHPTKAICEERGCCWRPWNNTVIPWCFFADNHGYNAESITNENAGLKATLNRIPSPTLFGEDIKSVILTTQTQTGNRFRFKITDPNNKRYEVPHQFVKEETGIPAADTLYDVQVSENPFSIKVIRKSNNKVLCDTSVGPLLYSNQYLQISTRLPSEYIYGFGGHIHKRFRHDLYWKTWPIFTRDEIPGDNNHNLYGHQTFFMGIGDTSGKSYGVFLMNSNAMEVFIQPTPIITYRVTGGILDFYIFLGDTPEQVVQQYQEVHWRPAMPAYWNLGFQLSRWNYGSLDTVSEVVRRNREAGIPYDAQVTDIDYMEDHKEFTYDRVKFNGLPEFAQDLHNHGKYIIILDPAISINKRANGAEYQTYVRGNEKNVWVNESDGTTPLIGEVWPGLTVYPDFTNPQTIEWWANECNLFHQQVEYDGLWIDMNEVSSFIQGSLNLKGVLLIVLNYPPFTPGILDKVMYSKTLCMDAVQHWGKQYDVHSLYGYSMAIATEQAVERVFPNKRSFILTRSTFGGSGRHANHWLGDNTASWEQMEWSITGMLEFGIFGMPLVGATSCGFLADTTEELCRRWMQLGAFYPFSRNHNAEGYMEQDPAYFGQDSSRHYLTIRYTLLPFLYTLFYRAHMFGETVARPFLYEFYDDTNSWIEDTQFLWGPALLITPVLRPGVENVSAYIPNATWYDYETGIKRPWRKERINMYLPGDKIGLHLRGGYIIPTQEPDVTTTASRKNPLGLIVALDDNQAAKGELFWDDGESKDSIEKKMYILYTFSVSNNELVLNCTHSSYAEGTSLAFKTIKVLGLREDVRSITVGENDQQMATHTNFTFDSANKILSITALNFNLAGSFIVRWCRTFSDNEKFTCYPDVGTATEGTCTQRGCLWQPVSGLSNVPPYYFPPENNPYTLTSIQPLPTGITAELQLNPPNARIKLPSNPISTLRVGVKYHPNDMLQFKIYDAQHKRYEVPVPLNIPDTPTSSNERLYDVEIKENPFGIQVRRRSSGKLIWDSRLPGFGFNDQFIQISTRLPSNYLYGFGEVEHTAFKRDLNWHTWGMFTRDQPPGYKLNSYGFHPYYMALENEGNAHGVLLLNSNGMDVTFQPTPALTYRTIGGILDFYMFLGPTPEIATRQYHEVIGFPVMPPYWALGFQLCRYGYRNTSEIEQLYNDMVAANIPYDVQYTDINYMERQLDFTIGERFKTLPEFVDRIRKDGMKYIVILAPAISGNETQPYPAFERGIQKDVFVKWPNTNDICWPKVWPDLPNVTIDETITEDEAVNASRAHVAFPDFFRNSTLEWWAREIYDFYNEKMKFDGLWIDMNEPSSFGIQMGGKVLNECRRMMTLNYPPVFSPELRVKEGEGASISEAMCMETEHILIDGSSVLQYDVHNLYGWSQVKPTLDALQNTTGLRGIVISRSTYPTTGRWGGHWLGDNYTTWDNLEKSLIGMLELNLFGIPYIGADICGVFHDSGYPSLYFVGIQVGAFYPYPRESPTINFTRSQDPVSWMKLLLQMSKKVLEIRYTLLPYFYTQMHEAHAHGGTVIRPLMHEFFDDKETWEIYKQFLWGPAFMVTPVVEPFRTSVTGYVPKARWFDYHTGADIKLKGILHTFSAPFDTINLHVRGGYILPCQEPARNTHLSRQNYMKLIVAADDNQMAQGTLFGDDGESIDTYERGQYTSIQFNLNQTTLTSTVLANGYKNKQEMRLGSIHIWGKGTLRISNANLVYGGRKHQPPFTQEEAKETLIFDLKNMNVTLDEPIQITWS

Turning to `OC[C@H]1NC[C@H](O)[C@@H](O)[C@@H]1O` [1-Deoxynojirimycin, 1-deoxynojirimycin], the “IC50 to Sucrase” value is 0.05 µg/mL (≈ 0.306 µM).
